Assay results taken from patent US9326511B2, “Methods of inhibiting microbial biofilms” (priority 2008, dated 2016).
Values after ≈ are worked out from the molar mass of the structure shown. “Also recorded” adds a separate entry of the source. Where two headings read alike, the source gives them in different places.

Columns and labels:
Type in all cases: cell-based, Staphylococcus aureus
[1] = tested on: S. aureus SH1000 biofilms; assay: Biofilm MIC and minimum biofilm eradication concentration, Calgary Biofilm Device; conditions: for bMIC / MIC: biofilm MIC; for MBEC: minimum biofilm eradication concentration; for MIC: Staphylococcus aureus, SH1000BIOFILMS, read-out: bMIC
Experimental: (§1) Methods: MICs were determined for planktonic cultures by broth microdilution according to British Society for Antimicrobial Chemotherapy (BSAC) guidelines. Biofilm MICs (bMIC) and minimum biofilm eradication concentrations (MBECs) were determined using the Calgary biofilm device. The effect of Compound 10 on the viability of cold culture cells was determined by growing S. aureus SH1000 to early exponential phase at 37° C. and resuspending the cells in pre-chilled media, where they were maintained in the presence and absence of Compound 10 and control agents. The effect of Compound 10 on slow growing cells expressing the stringent response was also determined by growing cultures to early log phase and the stringent response induced by the addition of the isoleucyl-tRNA synthetase inhibitor mupirocin. Compound 10 and control agents were then added and samples recovered for viable cell determinations.
Biofilm MICs and minimum biofilm eradication concentrations (MBEC) were determined in the Calgary Biofilm Device (Nunc Inc, Roskilde, Denmark) as described by Miller et al., 2005. This involves the following steps. Aliquots (200 μL) of exponential phase cultures of strain SH1000 were added to each well of a 96-well microtitre tray. The lid assembly, which has 96 polystyrene pegs corresponding to each well, was then replaced and the system incubated for 24 hours at 37° C. on a rocking platform. Following this a biofilm of approximately 10^7 cfu matured on each peg. The lid was then washed twice in phosphate-buffered saline (PBS) to remove residual planktonic growth and then placed into a microtitre tray with fresh media containing doubling dilutions of the test antibiotic. The system was then incubated for 24 hours at 37° C. on a rocking platform. The MIC was defined as the lowest concentration of antibiotic completely inhibiting visible growth after this incubation. After the MIC was recorded, the lid assembly was again washed twice in PBS to remove planktonic cells and remaining antibiotic and then placed into fresh drug-free media. The system was incubated for a further 24 hours and the MBEC was defined as the lowest concentration of antibiotic completely inhibiting the re-establishment of planktonic growth.

[2] = tested on: S. aureus SH1000; assay: Planktonic MIC by broth microdilution (BSAC guidelines)
Experimental: as §1

[3] = tested on: stringent S. aureus SH1000 cultures; assay: Time-kill against cultures expressing the stringent response (induced with mupirocin); conditions: stringent response induced with mupirocin, agents at 4×MIC
Experimental: as §1
When nutrients become limiting for growth bacteria adjust their metabolism from one that supports growth to one that provides for long survival in the absence of nutrients. In many bacteria a key facilitator of this physiological switch, known as the stringent response, is accumulation of guanosine […] and pentaphosphate (Traxler et al., 2008). The antibiotic mupirocin is a strong inducer of the stringent response in S. aureus and effectively causes starvation of charged isoleucyl tRNA by potent inhibition of isoleucy ItRNA synthetase (IRS) (Oliva et al., 2003). The activity of XF drugs against S. aureus SH1000 prevented from growing by the addition of mupirocin (Oliva et al., 2003), was therefore examined (FIG. 10). As an alternative method for arresting growth, bacteria were suspended in cold growth medium (Mascio et al., 2007) and the bactericidal activity of XF drugs was also determined under these conditions (FIG. 11).
(§2) The anti-staphylococcal activities of Compound 10, Compound 12 and a range of comparator agents against slow-growing cultures of Staphylococcus aureus were studied using standard time-kill methodology (Oliva et al. 2003, Hobbs et al. 2008). Staphylococcus aureus SH1000 cultures were grown to early exponential phase (OD600 nm of 0.2) in Mueller-Hinton broth (MHB) before being exposed to antibacterial agents at 4×MIC. An untreated culture served as the negative control. The experiments were undertaken in triplicate.
The antibiotic mupirocin is a strong inducer of the stringent response in S. aureus and causes starvation of charged isoleucyl tRNA by potent inhibition of isoleucyl tRNA synthetase (IRS) (Oliva et al. 2003, Cassels et al. 1995) Stringency was induced in SH1000 cultures by adding mupirocin (4 mg/L) to cells in the early exponential growth phase (OD600 nm of 0.2) (Oliva et al. 2003, Cassels et al. 1995). Cultures were incubated with mupirocin for 30 minutes before sampling began. Cultures were maintained at 37° C., and samples were taken at 30 minute intervals for 300 minutes, serially diluted in phosphate buffered saline (PBS) and diluted culture was spread on Mueller-Hinton agar and was incubated at 37° C. for 18-24 hours before the number of CFU were counted.

[4] = tested on: S. aureus SH1000 cold cultures; assay: Time-kill against cold cultures (4° C.); conditions: cold culture held at 4° C. for 5 hours, agents at 4×MIC
Experimental: as §1
The effect of XF drugs on the viability of cold culture cells was determined by growing S. aureus SH1000 to early exponential phase at 37° C., harvesting the cells by centrifugation (5,000×g, 10 min.) and resuspending them in pre-chilled media where they were maintained in the presence and absence of XF drugs and control agents for 5 hours. […] (FIG. 11).
as §2
Cold cultures were prepared by growing SH1000 cells to early exponential phase (OD600 nm of 0.2) at 37° C. Cultures were then centrifuged and the cell pellet was resuspended in MHB pre-chilled to 4° C. The killing kinetics of antimicrobial agents were studied as described in the section above, with the exception that cultures were maintained at 4° C. over the 5 hour sampling period.

[5] = S. aureus SH1000, Calgary Biofilm Device, 24 hours (Table 6)
[6] = S. aureus SH1000, Calgary device (Example H)
[7] = S. aureus SH1000, Calgary Biofilm Device (Table 6)
[8] = planktonic S. aureus SH1000 (Table 5)
[9] = planktonic S. aureus SH1000 (Table 6)
[10] = 24 h, S. aureus SH1000, Calgary Biofilm Device, 24 hours (Table 6)
[11] = Staphylococcus aureus, planktonic S. aureus SH1000 (Table 5), read-out: MIC

Compound	bMIC [1, 5]	bMIC [1, 6]	MBEC [1, 7]	MBEC [1, 6]	MIC [2, 8]	MIC [2, 9]	MIC [1, 10]	MIC [1, 6]	MIC [2, 11]	viability / bactericidal activity in time-kill (in words) [3]	viability / bactericidal activity in time-kill (in words) [4]
CCCCCCCCCCCCCCCC[N+](C)(C)C.[Br-] [CTAB]	2 µg/mL	2 µg/mL	>256 µg/mL	>256 µg/mL	2 µg/mL	2 µg/mL					
CO/N=C(\C(=O)N[C@@H]1C(=O)N2C(C(=O)O)=C(COC(C)=O)CS[C@H]12)c1csc(N)n1 [Cefotaxime]						0.5 µg/mL (≈ 1.1 µM)	4 µg/mL (≈ 8.78 µM)	4 µg/mL (≈ 8.78 µM)	0.5 µg/mL (≈ 1.1 µM)		
[H]/N=C(\N/C(=N/[H])NCCCCCCNC(=N)NC(=N)Nc1ccc(Cl)cc1)Nc1ccc(Cl)cc1 [Chlorhexidine]						2 µg/mL (≈ 3.96 µM)	1 µg/mL (≈ 1.98 µM)	1 µg/mL (≈ 1.98 µM)	2 µg/mL (≈ 3.96 µM)		
O=C(O)c1cn(C2CC2)c2cc(N3CCNCC3)c(F)cc2c1=O [Ciprofloxacin]						2 µg/mL (≈ 6.04 µM)	4 µg/mL (≈ 12.1 µM)	4 µg/mL (≈ 12.1 µM)	2 µg/mL (≈ 6.04 µM)		
CCCCCCCCCC(=O)N[C@@H](Cc1c[nH]c2ccccc12)C(=O)N[C@H](CC(N)=O)C(=O)N[C@@H](CC(=O)O)C(=O)N[C@@H]1C(=O)NCC(=O)N[C@@H](CCCN)C(=O)N[C@@H](CC(=O)O)C(=O)N[C@H](C)C(=O)N[C@@H](CC(=O)O)C(=O)NCC(=O)N[C@H](CO)C(=O)N[C@@H]([C@H](C)CC(=O)O)C(=O)N[C@@H](CC(=O)c2ccccc2N)C(=O)O[C@@H]1C [Daptomycin]						1 µg/mL (≈ 0.617 µM)	2 µg/mL (≈ 1.23 µM)	2 µg/mL (≈ 1.23 µM)	1 µg/mL (≈ 0.617 µM)	no loss of viability	no loss of viability; also recorded: retained some bactericidal activity; also recorded: retained limited bactericidal activity
Cc1onc(-c2c(F)cccc2Cl)c1C(=O)N[C@@H]1C(=O)N2[C@@H]1SC(C)(C)[C@@H]2C(=O)O [Flucloxacillin]						0.125 µg/mL (≈ 0.275 µM)	4 µg/mL (≈ 8.81 µM)	4 µg/mL (≈ 8.81 µM)	0.125 µg/mL (≈ 0.275 µM)		
CC(=O)O[C@H]1C[C@@]2(C)[C@@H](C[C@@H](O)[C@H]3[C@@]4(C)CC[C@@H](O)[C@@H](C)[C@@H]4CC[C@@]32C)/C1=C(\CCC=C(C)C)C(=O)O [Fusidic acid]						0.25 µg/mL (≈ 0.484 µM)	0.5 µg/mL (≈ 0.968 µM)	0.5 µg/mL (≈ 0.968 µM)	0.25 µg/mL (≈ 0.484 µM)		
C[C@@H](O)[C@H]1C(=O)N2C(C(=O)O)=C(S[C@@H]3CN[C@H](C(=O)N(C)C)C3)[C@H](C)[C@H]12 [Meropenem]						0.5 µg/mL (≈ 1.3 µM)	0.5 µg/mL (≈ 1.3 µM)	0.5 µg/mL (≈ 1.3 µM)	0.5 µg/mL (≈ 1.3 µM)		
C/C(=C\C(=O)OCCCCCCCCC(=O)O)C[C@@H]1OC[C@H](C[C@@H]2O[C@H]2[C@@H](C)[C@H](C)O)[C@@H](O)[C@H]1O [Mupirocin]						0.125 µg/mL (≈ 0.25 µM)	0.25 µg/mL (≈ 0.499 µM)	0.25 µg/mL (≈ 0.499 µM)	0.125 µg/mL (≈ 0.25 µM)		
CO[C@H]1/C=C/O[C@@]2(C)Oc3c(C)c(O)c4c(O)c(c(/C=N/N5CCN(C)CC5)c(O)c4c3C2=O)NC(=O)/C(C)=C\C=C\[C@H](C)[C@H](O)[C@@H](C)[C@@H](O)[C@@H](C)[C@H](OC(C)=O)[C@@H]1C [Rifampin]						0.008 µg/mL (≈ 0.00972 µM)	0.02 µg/mL (≈ 0.0243 µM)	0.03 µg/mL (≈ 0.0365 µM)	0.008 µg/mL (≈ 0.00972 µM)		
CN(C)[C@@H]1C(O)=C(C(N)=O)C(=O)[C@@]2(O)C(O)=C3C(=O)c4c(O)cccc4[C@@](C)(O)[C@H]3C[C@@H]12 [Tetracycline]						1 µg/mL (≈ 2.25 µM)	0.5 µg/mL (≈ 1.13 µM)	0.5 µg/mL (≈ 1.13 µM)	1 µg/mL (≈ 2.25 µM)		
Gentamycin	1 µg/mL	1 µg/mL	>256 µg/mL	>256 µg/mL	0.5 µg/mL	0.5 µg/mL					
